Patent US8420657B2 (Novartis AG, priority 2008, dated 2013)

Legend:
[1] = test system: JAK1/JAK2-dependent nuclear translocation of STAT1-GFP in HT1080 fibrosarcoma cells; experiment: STAT1 nuclear translocation assay (Cellomics), IFN-γ stimulated HT1080 STAT1-GFP cells; type: cell-based; details: Homo sapiens, HT-1080, STAT1 translocation pathway
Summary of the method: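 IC50 derived from percent nuclear STAT1-GFP translocation, computed from nuclear minus cytoplasmic GFP intensity against untreated baseline and DMSO-stimulated control. Stable HT1080 STAT1-GFP cells received compound (0.003–10 μM, 0.1% DMSO) 30 min ahead of a 2 h 100 ng/ml IFN-γ stimulus, then fixation and Hoechst nuclear masking.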

GST-JAK2(808-1132) = target: T1, GST-JAK2(808-1132) (Homo sapiens, UniProt O60674); experiment: JAK2 kinase assay (Caliper mobility shift, LabChip 3000); type: biochemical
T1 construct: GST-JAK2(808-1132); purchased Invitrogen (Carlsbad, USA) #4288
T1 sequence (O60674 808-1132): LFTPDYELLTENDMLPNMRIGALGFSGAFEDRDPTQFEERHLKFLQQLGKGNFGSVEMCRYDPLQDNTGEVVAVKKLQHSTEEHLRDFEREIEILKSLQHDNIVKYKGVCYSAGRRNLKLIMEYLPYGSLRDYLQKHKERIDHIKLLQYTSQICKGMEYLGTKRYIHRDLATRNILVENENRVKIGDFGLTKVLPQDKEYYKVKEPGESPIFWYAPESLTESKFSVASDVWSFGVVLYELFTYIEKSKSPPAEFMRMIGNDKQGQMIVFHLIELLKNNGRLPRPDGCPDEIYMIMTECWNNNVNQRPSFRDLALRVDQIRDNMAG
Summary of the method: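 Eight-point compound series (final 10–0.003 μM) tested on purchased GST-JAK2 kinase domain (808-1132). Peptide FITC-JAK3tide plus ATP reacted 60 min, 30 °C, then quenched with EDTA; turnover from charge-based separation of substrate and product.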

Row | Structure (SMILES) | IC50 [1] | IC50 (GST-JAK2(808-1132))
1 | Cc1ccc(Nc2ncc3ccn(-c4ccc(CN5CCOCC5)c(F)c4)c3n2)cc1Cl [Example 118, (3-Chloro-4-methyl-phenyl)-[7-(3-fluoro-4-morpholin-4-ylmethyl-phenyl)-7H-pyrrolo[2,3-d]pyrimidin-2-yl]-amine] | 1520 nM | 75 nM
2 | CCN1CCN(Cc2c(F)cc(-n3ccc4cnc(Nc5ccc(F)c(C)c5)nc43)cc2F)CC1 [Example 132, {7-[4-(4-Ethyl-piperazin-1-ylmethyl)-3,5-difluoro-phenyl]-7H-pyrrolo[2,3-d]pyrimidin-2-yl}-(4-fluoro-3-methyl-phenyl)-amine] | 6280 nM | 40.5 nM
3 | N#Cc1ccc(Nc2ncc3ccn(-c4cc(F)c(CN5CCS(=O)(=O)CC5)c(F)c4)c3n2)cc1 [Example 185, 4-{7-[4-(1,1-Dioxido-thiomorpholin-4-ylmethyl)-3,5-difluoro-phenyl]-7H-pyrrolo[2,3-d]pyrimidin-2-ylamino}-benzonitrile] | 290 nM | < 3 nM
4 | CS(=O)(=O)c1ccc(-n2ccc3cnc(Nc4ccc(C(=O)N5CCOCC5)cc4)nc32)cc1 [Example 30, {4-[7-(4-Methanesulfonyl-phenyl)-7H-pyrrolo[2,3-d]pyrimidin-2-ylamino]-phenyl}-morpholin-4-yl-methanone] | 204 nM | < 3 nM
5 | CC(C)Oc1ccc(Nc2ncc3ccn(-c4ccc(C(=O)N5CCOCC5)cc4)c3n2)cn1 [Example 232] | 1160 nM | 19 nM
6 | Cc1ccc(Nc2ncc3ccn(-c4ccc(CN5CCOCC5)cc4)c3n2)cc1C [Example 160, (3,4-Dimethyl-phenyl)-[7-(4-morpholin-4-ylmethyl-phenyl)-7H-pyrrolo[2,3-d]pyrimidin-2-yl]-amine] | 973 nM | 41.8 nM
7 | Cc1ccc(Nc2ncc3ccn(-c4ccc(C5(C(=O)N6CCN(C)CC6)CC5)cc4)c3n2)cc1Cl [Example 117, (1-{4-[2-(3-Chloro-4-methyl-phenylamino)-pyrrolo[2,3-d]pyrimidin-7-yl]-phenyl}-cyclopropyl)-(4-methyl-piperazin-1-yl)-methanone] | 384 nM | 9.4 nM
8 | CCN1CCN(C(=O)C2(c3ccc(-n4ccc5cnc(Nc6ccc(C)c(C)c6)nc54)cc3)CC2)CC1 [Example 159, (1-{4-[2-(3,4-Dimethyl-phenylamino)-pyrrolo[2,3-d]pyrimidin-7-yl]-phenyl}-cyclopropyl)-(4-ethyl-piperazin-1-yl)-methanone] | 1120 nM | 46.5 nM
9 | COc1cc(Nc2ncc3ccn(-c4ccc(C(=O)N5CCOCC5)c(C)c4)c3n2)ccc1F [Example 296, {4-[2-(4-Fluoro-3-methoxy-phenylamino)-pyrrolo[2,3-d]pyrimidin-7-yl]-2-methyl-phenyl}-morpholin-4-yl-methanone] | 1100 nM | < 3 nM
10 | CN1CCN(Cc2ccc(Nc3ncc4ccn(-c5ccc(S(C)(=O)=O)c(F)c5)c4n3)cc2)CC1 [Example 244, [7-(3-Fluoro-4-methanesulfonyl-phenyl)-7H-pyrrolo[2,3-d]pyrimidin-2-yl]-[4-(4-methyl-piperazin-1-ylmethyl)-phenyl]-amine] | 430 nM | < 3 nM
11 | Cc1cc(Nc2ncc3ccn(-c4cc(F)c(C(=O)N5CCOCC5)c(F)c4)c3n2)ccc1F [Example 213, {2,6-Difluoro-4-[2-(4-fluoro-3-methyl-phenylamino)-pyrrolo[2,3-d]pyrimidin-7-yl]-phenyl}-morpholin-4-yl-methanone] | 728 nM | 5.9 nM
12 | CN1CCN(C(=O)c2ccc(Nc3ncc4ccn(-c5cc(F)c(CN6CCOCC6)c(F)c5)c4n3)cc2C(F)(F)F)CC1 [Example 201, {4-[7-(3. 5-Difluoro-4-morpholin-4-ylmethyl-phenyl)-7H-pyrrolo[2,3-d]pyrimidin-2-ylamino]-2-trifluoromethyl-phenyl}-(4-methyl-piperazin-1-yl)-methanone] | 199 nM | < 3 nM
13 | CC(C)Oc1ccc(Nc2ncc3ccn(-c4ccc(CN5CCCC5)cc4)c3n2)cc1 [Example 107, (4-Isopropoxy-phenyl)-[7-(4-pyrrolidin-1-ylmethyl-phenyl)-7H-pyrrolo[2,3-d]pyrimidin-2-yl]-amine] | 1840 nM | 8.1 nM
14 | Cc1ccc(Nc2ncc3ccn(-c4ccc(C(=O)N5CCOCC5)c(F)c4)c3n2)cn1 [Example 223] | 455 nM | 9.2 nM
15 | CN1CCN(C(=O)c2cc(Nc3ncc4ccn(-c5ccc(S(C)(=O)=O)cc5)c4n3)ccc2F)CC1 [Example 76, {2-Fluoro-5-[7-(4-methanesulfonyl-phenyl)-7H-pyrrolo[2,3-d]pyrimidin-2-ylamino]-phenyl}-(4-methyl-piperazin-1-yl)-methanone] | 934 nM | 38 nM
16 | Cc1ccc(Nc2ncc3ccn(-c4cc(F)c(CN5CCS(=O)(=O)CC5)c(F)c4)c3n2)cc1Cl [Example 129, (3-Chloro-4-methyl-phenyl)-{7-[4-(1,1-dioxido-thiomorpholin-4-ylmethyl)-3,5-difluoro-phenyl]-7H-pyrrolo[2,3-d]pyrimidin-2-yl}-amine] | 471 nM | 9 nM

These reach a lower IC50 [1]. Values come first.

Row | IC50 [1] | IC50 (GST-JAK2(808-1132)) | Structure (SMILES)
17 | 142 nM | < 3 nM | CS(=O)(=O)c1ccc(-n2ccc3cnc(Nc4ccc(CN5CCOCC5)cc4)nc32)cc1 [Example 44, [7-(4-Methanesulfonyl-phenyl)-7H-pyrrolo[2,3-d]pyrimidin-2-yl]-(4-morpholin-4-ylmethyl-phenyl)-amine]
18 | 8 nM | < 3 nM | CCN1CCN(c2ccc(Nc3ncc4ccn(-c5ccc(C(=O)N6CCOCC6)c(F)c5)c4n3)cc2C)CC1 [Example 293, (4-{2-[4-(4-Ethyl-piperazin-1-yl)-3-methyl-phenylamino]-pyrrolo[2,3-d]pyrimidin-7-yl}-2-fluoro-phenyl)-morpholin-4-yl-methanone]
19 | 115 nM | < 3 nM | Fc1cc(-n2ccc3cnc(Nc4ccc(CN5CCNC6(CC6)C5)cc4)nc32)cc(F)c1CN1CCOCC1 [Example 256]
20 | 67.5 nM | < 3 nM | O=C(c1ccc(-n2ccc3cnc(Nc4ccc(CN5CCOCC5)cc4)nc32)cc1F)N1CCOCC1 [Example 288, {2-Fluoro-4-[2-(4-morpholin-4-ylmethyl-phenylamino)-pyrrolo[2,3-d]pyrimidin-7-yl]-phenyl}-morpholin-4-yl-methanone]
21 | 150 nM | 3.3 nM | Cc1cc(Nc2ncc3ccn(-c4cc(F)c(CN5CCS(=O)(=O)CC5)c(F)c4)c3n2)ccc1F [Example 137, {7-[4-(1,1-Dioxido-thiomorpholin-4-ylmethyl)-3,5-difluoro-phenyl]-7H-pyrrolo[2,3-d]pyrimidin-2-yl}-(4-fluoro-3-methyl-phenyl)-amin]
22 | 85 nM | 6.1 nM | Cn1cc(Nc2ncc3ccn(-c4ccc(C(=O)N5CCOCC5)c(F)c4)c3n2)cn1 [Example 302, {2-Fluoro-4-[2-(1-methyl-1H-pyrazol-4-ylamino)-pyrrolo[2,3-d]pyrimidin-7-yl]-phenyl}-morpholin-4-yl-methanone]
23 | 93 nM | 4.3 nM | Cc1ccc(Nc2ncc3ccn(-c4ccc(C(=O)N5CCOCC5)cc4)c3n2)cc1C [Example 169, {4-[2-(3,4-Dimethyl-phenylamino)-pyrrolo[2,3-d]pyrimidin-7-yl]-phenyl}-morpholin-4-yl-methanone]
